# Measurements as given in patent US11787762B2, “Tetralin and tetrahydroquinoline compounds as inhibitors of HIF-2alpha” (ARCUS BIOSCIENCES, INC., priority 2020, dated 2023).
# Target: T1, HIF-2α (Homo sapiens, UniProt Q99814)
# T1 construct: host or cells: 786-O cells stably transduced with Cignal Lenti HIF Luc Reporter (only the reporter was introduced, not HIF-2α)
# Experiment: HIF-2α luciferase reporter assay in HIF-Luc-786-O cells
# Type: cell-based
# Conditions: Table 3, 20 hours incubation
# Protocol: Generation of HIF-2α Luciferase 786-O Cell Line:
# Stable cell lines were generated by transducing 786-O cells (ATCC, CRL-1932) with Cignal Lenti HIF Luc Reporter lentivirus (CLS-007 L, Qiagen) according to the manufacturer's guidelines. In brief, 0.3×10^6 786-0 cells were transduced with lentivirus at a Multiplicity of Infection (MOI) of 25 for 24 hours. After transduction, cells were replenished with fresh RPMI 1640 Medium (Cat. No. 11875085, Thermo Fisher,) supplemented with 10% FBS (Cat. No. A3160502, Gibco), 2 mM GlutaMax (Cat. No. 35050-061, Invitrogen) and 100 units of penicillin and 100 μg of streptomycin/mL (Cat. No 15070063, Thermo Fisher) for another 24 hours. Antibiotic selection was performed in cell media containing 4 μg/mL of Puromycin. After 7 days of antibiotic selection, stable pools of surviving cells were expanded and used in a luciferase reporter assay.
# HIF-2α Luciferase Reporter Assay:
# On day one, 20 uL of HIF-Luc-786-0 cells in OptiMem (Cat. No. 31985088, Thermo Fisher) were seeded into each well of a 384 well white opaque plate (Corning 3570) and incubated at 37° C. and 5% CO2. Twenty microliters of 2× test compounds in OptiMem were added to cells after 4 hours of incubation. Final assay conditions comprised 20,000 cells per well in 1% DMSO with test compound concentrations ranging from 50 uM to 0 uM. After 20 hours incubation at 37° C. and 5% CO2, luciferase activity was determined using ONE-Glo Luciferase Assay Reagent (E6110, Promega) following the manufacture's recommended procedure. Briefly, 40 uL of ONE-Glo luciferase reagents were added to each well and luciferase signals were measured using an Envision 2102 Multilabel Reader. Percentage maximum activity in each test well was calculated based on DMSO (maximum activity) and no cell control wells (baseline activity). The IC50 values of the test compounds were determined from compound dose response curves fitted using a standard four parameter fit equation.
# T1 sequence (Q99814 whole entry): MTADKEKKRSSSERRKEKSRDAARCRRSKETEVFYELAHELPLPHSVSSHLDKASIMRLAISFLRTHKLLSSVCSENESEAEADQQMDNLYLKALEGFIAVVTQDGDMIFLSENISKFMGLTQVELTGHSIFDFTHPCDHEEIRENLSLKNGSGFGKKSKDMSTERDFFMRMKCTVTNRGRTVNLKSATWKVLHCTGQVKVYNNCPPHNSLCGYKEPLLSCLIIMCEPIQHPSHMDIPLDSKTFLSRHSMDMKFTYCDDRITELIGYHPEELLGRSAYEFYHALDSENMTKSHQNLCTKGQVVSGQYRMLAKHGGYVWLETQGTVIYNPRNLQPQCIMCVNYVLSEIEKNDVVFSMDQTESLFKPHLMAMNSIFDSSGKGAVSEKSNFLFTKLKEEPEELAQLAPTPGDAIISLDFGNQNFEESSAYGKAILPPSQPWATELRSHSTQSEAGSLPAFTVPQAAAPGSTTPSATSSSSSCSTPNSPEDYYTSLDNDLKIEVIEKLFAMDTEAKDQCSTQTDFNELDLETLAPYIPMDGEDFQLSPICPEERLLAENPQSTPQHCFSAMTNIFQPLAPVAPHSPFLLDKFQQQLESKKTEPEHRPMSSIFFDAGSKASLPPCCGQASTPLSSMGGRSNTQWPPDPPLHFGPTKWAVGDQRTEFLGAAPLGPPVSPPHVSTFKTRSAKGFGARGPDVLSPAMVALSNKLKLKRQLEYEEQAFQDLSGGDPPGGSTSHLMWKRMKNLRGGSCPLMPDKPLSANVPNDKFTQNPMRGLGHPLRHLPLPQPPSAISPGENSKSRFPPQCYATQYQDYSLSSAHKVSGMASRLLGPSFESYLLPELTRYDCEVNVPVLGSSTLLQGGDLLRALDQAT
row,IC50 [nM],SMILES
1,< 100,"Cn1cc(-c2c(F)cc([C@H]3CC[C@H](F)c4cc(F)cc(C#N)c43)c3c2[C@H](O)C(F)(F)C3)nn1 [Example 202, (5S,8R)-3,5-Difluoro-8-[(1S)-2,2,6-trifluoro-1-hydroxy-7-(1-methyltriazol-4-yl)-1,3-dihydroinden-4-yl]-5,6,7,8-tetrahydronaphthalene-1-carbonitrile]"
2,< 100,"Cc1nc(N)ccc1-c1c(F)cc([C@H]2CC[C@H](F)c3cc(F)cc(C#N)c32)c2c1[C@H](O)C(F)(F)C2 [Example 203, (5S,8R)-8-[(1S)-7-(6-amino-2-methylpyridin-3-yl)-2,2,6-trifluoro-1-hydroxy-1,3-dihydroinden-4-yl]-3,5-difluoro-5,6,7,8-tetrahydronaphthalene-1-carbonitrile]"
3,< 100,"Cc1ncc(-c2c(F)cc([C@H]3CC[C@H](F)c4cc(F)cc(C#N)c43)c3c2[C@H](O)C(F)(F)C3)c(N)n1 [Example 205, (5S,8R)-8-[(1S)-7-(4-amino-2-methylpyrimidin-5-yl)-2,2,6-trifluoro-1-hydroxy-2,3-dihydro-1H-inden-4-yl]-3,5-difluoro-5,6,7,8-tetrahydronaphthalene-1-carbonitrile]"
4,< 100,"Cn1cncc1-c1c(F)cc([C@H]2C[C@H](F)[C@H](F)c3cc(F)cc(C#N)c32)c2c1[C@H](O)C(F)(F)C2 [Example 208, (5R,6S)-3,5,6-trifluoro-8-[(1S)-2,2,6-trifluoro-1-hydroxy-7-(1-methyl-1H-imidazol-5-yl)-2,3-dihydro-1H-inden-4-yl]-5,6,7,8-tetrahydronaphthalene-1-carbonitrile]"
5,< 100,"Cc1c(-c2c(F)cc([C@H]3C[C@H](F)[C@H](F)c4cc(F)cc(C#N)c43)c3c2[C@H](O)C(F)(F)C3)cnn1C [Example 209, (5R,6S)-8-[(1S)-7-(1,5-dimethyl-1H-pyrazol-4-yl)-2,2,6-trifluoro-1-hydroxy-2,3-dihydro-1H-inden-4-yl]-3,5,6-trifluoro-5,6,7,8-tetrahydronaphthalene-1-carbonitrile]"
6,< 100,"Cc1nc(N)ccc1-c1ccc([C@H]2C[C@H](F)[C@H](F)c3cc(F)cc(C#N)c32)c2c1[C@H](O)C(F)(F)C2 [Example 216, (5R,6S,8R)-8-[(1S)-7-(6-amino-2-methylpyridin-3-yl)-2,2-difluoro-1-hydroxy-2,3-dihydro-1H-inden-4-yl]-3,5,6-trifluoro-5,6,7,8-tetrahydronaphthalene-1-carbonitrile]"
7,< 100,"Cn1nccc1-c1ccc([C@H]2C[C@H](F)[C@H](F)c3cc(F)cc(C#N)c32)c2c1[C@H](O)C(F)(F)C2 [Example 217, (5R,6S,8R)-8-[(1S)-2,2-difluoro-1-hydroxy-7-(1-methyl-1H-pyrazol-5-yl)-2,3-dihydro-1H-inden-4-yl]-3,5,6-trifluoro-5,6,7,8-tetrahydronaphthalene-1-carbonitrile]"
8,< 100,"Cn1nncc1-c1ccc([C@H]2C[C@H](F)[C@H](F)c3cc(F)cc(C#N)c32)c2c1[C@H](O)C(F)(F)C2 [Example 218, (5R,6S,8R)-8-[(1S)-2,2-difluoro-1-hydroxy-7-(1-methyl-1H-1,2,3-triazol-5-yl)-2,3-dihydro-1H-inden-4-yl]-3,5,6-trifluoro-5,6,7,8-tetrahydronaphthalene-1-carbonitrile]"
9,< 100,"N#Cc1cc(F)cc2c1[C@@H](c1ccc(Cl)c3c1CC(F)(F)[C@H]3O)C[C@H](F)[C@@H]2F [Example 219, (5R,6S,8R)-8-[(1S)-7-chloro-2,2-difluoro-1-hydroxy-2,3-dihydro-1H-inden-4-yl]-3,5,6-trifluoro-5,6,7,8-tetrahydronaphthalene-1-carbonitrile]"
10,< 100,"Cc1nc(C#N)ncc1-c1ccc([C@H]2C[C@H](F)[C@H](F)c3cc(F)cc(C#N)c32)c2c1[C@H](O)C(F)(F)C2 [Example 220, 5-[(3S)-7-[(1R,3S,4R)-8-cyano-3,4,6-trifluoro-1,2,3,4-tetrahydronaphthalen-1-yl]-2,2-difluoro-3-hydroxy-2,3-dihydro-1H-inden-4-yl]-4-methylpyrimidine-2-carbonitrile]"
11,< 100,"Cc1ncc(-c2ccc([C@H]3C[C@H](F)[C@H](F)c4cc(F)cc(C#N)c43)c3c2[C@H](O)C(F)(F)C3)c(N)n1 [Example 221, (5R,6S,8R)-8-[(1S)-7-(4-amino-2-methylpyrimidin-5-yl)-2,2-difluoro-1-hydroxy-2,3-dihydro-1H-inden-4-yl]-3,5,6-trifluoro-5,6,7,8-tetrahydronaphthalene-1-carbonitrile]"

# Further lines, the molecule ahead of its results:
row,SMILES,IC50 [nM]
1,"N#Cc1cc(F)cc2c1[C@@H](c1ccc(-n3ccnc3)c3c1CC(F)(F)[C@H]3O)CC[C@@H]2F [Example 199, (5S,8R)-8-[(1S)-2,2-difluoro-1-hydroxy-7-imidazol-1-yl-1,3-dihydroinden-4-yl]-3,5-difluoro-5,6,7,8-tetrahydronaphthalene-1-carbonitrile]",< 100
2,"N#Cc1cc(F)cc2c1[C@@H](c1ccc(Nc3ccccn3)c3c1CC(F)(F)[C@H]3O)CC[C@@H]2F [Example 200, (5S,8R)-8-[(1S)-2,2-difluoro-1-hydroxy-7-(pyridin-2-ylamino)-1,3-dihydroinden-4-yl]-3,5-difluoro-5,6,7,8-tetrahydronaphthalene-1-carbonitrile]",100 to 1000
3,"N#Cc1cc(F)cc2c1[C@@H](c1ccc(C#N)c3c1CC(F)(F)[C@H]3O)CC[C@@H]2F [Example 201, (5S,8R)-8-[(1S)-7-cyano-2,2-difluoro-1-hydroxy-1,3-dihydroinden-4-yl]-3,5-difluoro-5,6,7,8-tetrahydronaphthalene-1-carbonitrile]",< 100
4,"N#Cc1ccc(-c2c(F)cc([C@H]3CC[C@H](F)c4cc(F)cc(C#N)c43)c3c2[C@H](O)C(F)(F)C3)c(N)c1 [Example 204, (5S,8R)-8-[(1S)-7-(2-amino-4-cyanophenyl)-2,2,6-trifluoro-1-hydroxy-2,3-dihydro-1H-inden-4-yl]-3,5-difluoro-5,6,7,8-tetrahydronaphthalene-1-carbonitrile]",< 100
5,"Cc1nc(C#N)ncc1-c1c(F)cc([C@H]2CC[C@H](F)c3cc(F)cc(C#N)c32)c2c1[C@H](O)C(F)(F)C2 [Example 206, 5-[(3S)-7-[(1R,4S)-8-cyano-4,6-difluoro-1,2,3,4-tetrahydronaphthalen-1-yl]-2,2,5-trifluoro-3-hydroxy-2,3-dihydro-1H-inden-4-yl]-4-methylpyrimidine-2-carbonitrile]",< 100
6,"N#Cc1cc(F)cc2c1[C@@H](c1cc(F)c(Cl)c3c1CC(F)(F)[C@H]3O)CC[C@@H]2F [Example 207, (5S,8R)-8-[(1S)-7-chloro-2,2,6-trifluoro-1-hydroxy-1,3-dihydroinden-4-yl]-3,5-difluoro-5,6,7,8-tetrahydronaphthalene-1-carbonitrile]",< 100
7,"Cn1nccc1-c1c(F)cc([C@H]2CC[C@H](F)c3cc(F)cc(C#N)c32)c2c1[C@H](O)[C@H](F)C2 [Example 210, (5S,8R)-8-[(1S,2R)-2,6-difluoro-1-hydroxy-7-(2-methylpyrazol-3-yl)-2,3-dihydro-1H-inden-4-yl]-3,5-difluoro-5,6,7,8-tetrahydronaphthalene-1-carbonitrile]",< 100
8,"CS(=O)(=O)c1c(F)cc([C@H]2CC[C@H](F)c3cc(F)cc(C#N)c32)c2c1[C@H](O)[C@H](F)C2 [Example 211, (5S,8R)-8-[(1S,2R)-2,6-Difluoro-1-hydroxy-7-methylsulfonyl-2,3-dihydro-1H-inden-4-yl]-3,5-difluoro-5,6,7,8-tetrahydronaphthalene-1-carbonitrile]",< 100
9,"CS(=O)(=O)c1c(N)cc([C@H]2CC[C@H](F)c3cc(F)cc(C#N)c32)c2c1[C@H](O)[C@H](F)C2 [Example 212, (5S,8R)-8-[(1S,2R)-6-amino-2-fluoro-1-hydroxy-7-methylsulfonyl-2,3-dihydro-1H-inden-4-yl]-3,5-difluoro-5,6,7,8-tetrahydronaphthalene-1-carbonitrile]",< 100
10,"CS(=O)(=O)c1c(C#N)cc([C@H]2CC[C@H](F)c3cc(F)cc(C#N)c32)c2c1[C@H](O)[C@H](F)C2 [Example 214, (5S,8R)-8-[(1S,2R)-6-Cyano-2-fluoro-1-hydroxy-7-methylsulfonyl-2,3-dihydro-1H-inden-4-yl]-3,5-difluoro-5,6,7,8-tetrahydronaphthalene-1-carbonitrile]",100 to 1000
11,"N#Cc1cc(F)cc2c1[C@@H](c1ccc(Cl)c3c1C[C@@H](F)[C@H]3O)CC[C@@H]2F [Example 222, (5S,8R)-8-[(1S,2R)-7-chloro-2-fluoro-1-hydroxy-2,3-dihydro-1H-inden-4-yl]-3,5-difluoro-5,6,7,8-tetrahydronaphthalene-1-carbonitrile]",< 100
